The numbers were not newly measured in US20190300958A1, “GENETIC POLYMORPHISMS ASSOCIATED WITH VENOUS THROMBOSIS AND STATIN RESPONSE, METHODS OF DETECTION AND USES THEREOF” (Celera Corporation, priority 2010, published 2019), which cites them from elsewhere.

One data set concerns myocyte cultures. Conditions: animal models and myocyte cultures, compared to lipophilic statins.
Data set [1] relates to major cardiovascular events. To be noted: study of 17,802 individuals.

Turning to `CC[C@H](C)C(=O)O[C@H]1C[C@H](O)C=C2C=C[C@H](C)[C@H](CC[C@@H](O)C[C@@H](O)CC(=O)O)[C@H]21` [Pravastatin, pravastatin], the myopathic potential result in the data set with myocyte cultures was “low myopathic potential”.

As for `CC(C)c1nc(N(C)S(C)(=O)=O)nc(-c2ccc(F)cc2)c1/C=C/[C@@H](O)C[C@@H](O)CC(=O)O` [rosuvastatin], the “incidence of major cardiovascular events” value in data set [1] is on record as “significantly reduced”.
